Source: ChEMBL document CHEMBL1201862, “PubChem BioAssay data set” (2004)
Activity calls are given as the source filed them.

Legend:
[1] = molecular target: T1, Aryl hydrocarbon receptor (Homo sapiens, UniProt P35869); assay: Luminescence-based cell-based high throughput dose response assay for activators of the Aryl Hydrocarbon Receptor (AHR). [Related pubchem assays: 2796 (Primary screen (AHR activators in singlicate)), 2845 (Confirmation screen (AHR activators in triplicate)), 434939 (Counterscreen (PXR activators in triplicate)), 2804 (Summary (AHR activators))]; assay type: ADME
T1 sequence (P35869 whole entry): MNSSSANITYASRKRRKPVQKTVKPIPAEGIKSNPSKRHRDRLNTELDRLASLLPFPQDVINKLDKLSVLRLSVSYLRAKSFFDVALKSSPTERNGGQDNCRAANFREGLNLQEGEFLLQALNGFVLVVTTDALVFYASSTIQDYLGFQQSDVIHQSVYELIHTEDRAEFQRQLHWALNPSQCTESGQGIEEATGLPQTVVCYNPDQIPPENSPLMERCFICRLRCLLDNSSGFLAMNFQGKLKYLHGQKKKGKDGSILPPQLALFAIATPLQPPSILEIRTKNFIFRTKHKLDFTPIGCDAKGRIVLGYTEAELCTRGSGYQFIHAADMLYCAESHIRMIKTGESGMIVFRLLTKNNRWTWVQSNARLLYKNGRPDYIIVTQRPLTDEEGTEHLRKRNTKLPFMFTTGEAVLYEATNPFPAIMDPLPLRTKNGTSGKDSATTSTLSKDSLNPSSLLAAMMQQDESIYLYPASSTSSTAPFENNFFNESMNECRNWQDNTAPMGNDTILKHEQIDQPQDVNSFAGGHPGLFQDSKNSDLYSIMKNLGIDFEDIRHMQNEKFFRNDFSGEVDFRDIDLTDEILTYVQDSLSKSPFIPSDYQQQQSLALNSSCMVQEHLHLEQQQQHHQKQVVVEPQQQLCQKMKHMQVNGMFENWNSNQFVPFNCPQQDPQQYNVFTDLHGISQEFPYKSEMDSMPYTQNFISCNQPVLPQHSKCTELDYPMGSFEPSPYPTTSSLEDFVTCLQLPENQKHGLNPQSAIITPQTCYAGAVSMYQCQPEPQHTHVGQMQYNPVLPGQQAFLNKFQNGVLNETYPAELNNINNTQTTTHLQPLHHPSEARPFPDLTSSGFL

[2] = molecular target: Peroxisome proliferator-activated receptor gamma/Nuclear receptor coactivator 3 (Homo sapiens, UniProt P37231); assay type: functional;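 also: agonist potency for raising coactivator recruitment to the receptor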
Vero = assay: host cell cytotoxicity of antiviral hits, dose response, cytotoxicity control for West Nile virus antiviral project, secondary assay (AID 1650); assay type: functional; conditions: Chlorocebus sabaeus
[3] = molecular target: Peroxisome proliferator-activated receptor gamma/Nuclear receptor coactivator 1 (Homo sapiens, UniProt P37231); assay type: functional;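 also: agonist potency as compounds enhance coactivator SRC-1 recruitment to PPARgamma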
[4] = molecular target: Peroxisome proliferator-activated receptor gamma/Nuclear receptor coactivator 2 (Homo sapiens, UniProt P37231); assay type: functional;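 also: agonist potency for raising coactivator recruitment to the receptor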
[5] = M. tuberculosis H37Rv growth inhibitors, H37Rv strain (AID 1626); assay type: functional
[6] = cytotoxicity in HPDE-C7 cells, cell-based, fluorescence, HTS (AID 430); assay type: functional; conditions: Homo sapiens
[7] = cytotoxicity in KRAS-transformed pancreatic duct cells, primary screen, cell-based, fluorescence, HTS (AID 431); assay type: functional; conditions: Homo sapiens;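 also: cell line used: HPDE-C7K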
[8] = molecular target: T2, Neuropeptide Y receptor type 1 (Homo sapiens, UniProt P25929); assay type: functional;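 also: HEK293 cells with a CNG channel challenged with NPY then isoproterenol; potency as antagonist that reverses NPY suppression of cAMP signal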
T2 sequence (P25929 whole entry): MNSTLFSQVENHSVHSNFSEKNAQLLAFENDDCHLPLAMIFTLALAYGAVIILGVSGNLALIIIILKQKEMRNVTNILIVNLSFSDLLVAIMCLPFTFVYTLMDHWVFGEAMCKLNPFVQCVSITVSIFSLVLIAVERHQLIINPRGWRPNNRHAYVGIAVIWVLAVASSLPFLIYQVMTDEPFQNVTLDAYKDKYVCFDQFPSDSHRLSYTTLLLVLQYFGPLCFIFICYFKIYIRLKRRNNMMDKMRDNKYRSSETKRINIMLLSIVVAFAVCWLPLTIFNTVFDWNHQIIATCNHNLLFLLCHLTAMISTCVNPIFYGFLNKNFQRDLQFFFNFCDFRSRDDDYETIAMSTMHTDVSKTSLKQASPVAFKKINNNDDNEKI

[9] = molecular target: T3, Neuropeptide Y receptor type 2 (Homo sapiens, UniProt P49146); assay type: functional, cell-based;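 also: HEK293 cells expressing the receptor and a CNG channel; stimulus was NPY near EC95 followed by isoproterenol to raise cAMP; antagonist potency measured as restoring cAMP signal that NPY suppresses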
T3 sequence (P49146 whole entry): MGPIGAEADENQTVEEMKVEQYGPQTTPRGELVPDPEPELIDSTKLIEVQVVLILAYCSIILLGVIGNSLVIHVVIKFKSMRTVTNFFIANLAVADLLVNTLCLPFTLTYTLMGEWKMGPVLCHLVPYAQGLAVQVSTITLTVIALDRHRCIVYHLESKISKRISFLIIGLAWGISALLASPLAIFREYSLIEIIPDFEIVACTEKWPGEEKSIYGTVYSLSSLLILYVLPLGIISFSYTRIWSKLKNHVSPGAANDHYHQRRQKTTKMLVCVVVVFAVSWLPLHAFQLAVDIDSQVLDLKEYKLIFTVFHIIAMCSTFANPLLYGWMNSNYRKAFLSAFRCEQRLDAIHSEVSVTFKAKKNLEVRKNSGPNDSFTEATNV

Chain of Peroxisome proliferator-activated receptor gamma/Nuclear receptor coactivator 2 (P37231 whole entry): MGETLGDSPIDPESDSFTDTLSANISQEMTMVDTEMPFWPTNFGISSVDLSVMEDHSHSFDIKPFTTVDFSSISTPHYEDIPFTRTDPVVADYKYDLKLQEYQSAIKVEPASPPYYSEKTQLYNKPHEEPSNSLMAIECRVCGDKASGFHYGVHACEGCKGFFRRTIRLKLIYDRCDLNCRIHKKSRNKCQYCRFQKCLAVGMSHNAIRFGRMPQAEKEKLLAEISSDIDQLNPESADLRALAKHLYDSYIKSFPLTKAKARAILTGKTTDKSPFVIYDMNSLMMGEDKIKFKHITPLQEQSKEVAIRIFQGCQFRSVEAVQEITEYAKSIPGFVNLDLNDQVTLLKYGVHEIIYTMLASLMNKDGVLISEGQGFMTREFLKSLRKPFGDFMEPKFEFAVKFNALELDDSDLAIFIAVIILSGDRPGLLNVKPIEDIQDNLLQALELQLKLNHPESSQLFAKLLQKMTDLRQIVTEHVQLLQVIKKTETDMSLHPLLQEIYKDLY
Chain of Peroxisome proliferator-activated receptor gamma/Nuclear receptor coactivator 2 (Q15596 whole entry, further chain): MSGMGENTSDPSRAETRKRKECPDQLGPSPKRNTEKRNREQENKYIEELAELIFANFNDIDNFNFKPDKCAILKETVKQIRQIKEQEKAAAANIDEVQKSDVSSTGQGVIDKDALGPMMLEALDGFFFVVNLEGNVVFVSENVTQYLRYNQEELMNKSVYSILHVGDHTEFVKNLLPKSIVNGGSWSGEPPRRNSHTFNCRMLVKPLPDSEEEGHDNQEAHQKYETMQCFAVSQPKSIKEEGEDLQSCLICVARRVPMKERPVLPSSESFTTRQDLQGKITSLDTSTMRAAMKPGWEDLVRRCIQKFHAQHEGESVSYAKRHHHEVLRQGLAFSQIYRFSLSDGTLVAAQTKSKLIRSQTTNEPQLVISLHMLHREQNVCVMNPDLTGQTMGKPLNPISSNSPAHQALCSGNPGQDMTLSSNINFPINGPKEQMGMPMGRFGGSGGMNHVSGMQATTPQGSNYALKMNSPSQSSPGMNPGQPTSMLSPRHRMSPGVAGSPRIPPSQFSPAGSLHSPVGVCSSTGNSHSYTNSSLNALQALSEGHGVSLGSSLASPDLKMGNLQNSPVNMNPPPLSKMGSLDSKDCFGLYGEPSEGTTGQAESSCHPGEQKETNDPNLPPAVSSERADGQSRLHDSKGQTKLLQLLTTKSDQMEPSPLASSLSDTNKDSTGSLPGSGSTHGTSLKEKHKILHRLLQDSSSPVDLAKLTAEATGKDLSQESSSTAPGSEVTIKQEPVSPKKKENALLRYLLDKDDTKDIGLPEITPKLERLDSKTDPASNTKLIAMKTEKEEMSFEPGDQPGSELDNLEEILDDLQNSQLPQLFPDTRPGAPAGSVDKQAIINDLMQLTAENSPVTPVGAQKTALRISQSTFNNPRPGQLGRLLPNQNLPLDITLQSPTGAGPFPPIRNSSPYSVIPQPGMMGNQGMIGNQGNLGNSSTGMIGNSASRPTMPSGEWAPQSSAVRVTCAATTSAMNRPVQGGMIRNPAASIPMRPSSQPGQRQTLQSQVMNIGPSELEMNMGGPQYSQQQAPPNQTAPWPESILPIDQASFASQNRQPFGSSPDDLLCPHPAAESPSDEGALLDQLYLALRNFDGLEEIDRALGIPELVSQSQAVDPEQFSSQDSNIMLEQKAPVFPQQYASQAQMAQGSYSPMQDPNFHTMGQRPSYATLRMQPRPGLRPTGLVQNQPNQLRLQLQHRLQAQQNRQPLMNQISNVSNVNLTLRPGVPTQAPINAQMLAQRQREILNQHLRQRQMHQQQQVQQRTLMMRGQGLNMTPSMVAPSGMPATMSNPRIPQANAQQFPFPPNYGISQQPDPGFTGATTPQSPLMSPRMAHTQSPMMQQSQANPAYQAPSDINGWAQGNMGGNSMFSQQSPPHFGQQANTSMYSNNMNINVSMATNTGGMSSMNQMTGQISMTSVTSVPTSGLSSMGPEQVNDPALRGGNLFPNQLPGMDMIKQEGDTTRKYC
Chain of Peroxisome proliferator-activated receptor gamma/Nuclear receptor coactivator 1 (P37231 whole entry): as the sequence (P37231 whole entry) above
Chain of Peroxisome proliferator-activated receptor gamma/Nuclear receptor coactivator 1 (Q15788 whole entry, further chain): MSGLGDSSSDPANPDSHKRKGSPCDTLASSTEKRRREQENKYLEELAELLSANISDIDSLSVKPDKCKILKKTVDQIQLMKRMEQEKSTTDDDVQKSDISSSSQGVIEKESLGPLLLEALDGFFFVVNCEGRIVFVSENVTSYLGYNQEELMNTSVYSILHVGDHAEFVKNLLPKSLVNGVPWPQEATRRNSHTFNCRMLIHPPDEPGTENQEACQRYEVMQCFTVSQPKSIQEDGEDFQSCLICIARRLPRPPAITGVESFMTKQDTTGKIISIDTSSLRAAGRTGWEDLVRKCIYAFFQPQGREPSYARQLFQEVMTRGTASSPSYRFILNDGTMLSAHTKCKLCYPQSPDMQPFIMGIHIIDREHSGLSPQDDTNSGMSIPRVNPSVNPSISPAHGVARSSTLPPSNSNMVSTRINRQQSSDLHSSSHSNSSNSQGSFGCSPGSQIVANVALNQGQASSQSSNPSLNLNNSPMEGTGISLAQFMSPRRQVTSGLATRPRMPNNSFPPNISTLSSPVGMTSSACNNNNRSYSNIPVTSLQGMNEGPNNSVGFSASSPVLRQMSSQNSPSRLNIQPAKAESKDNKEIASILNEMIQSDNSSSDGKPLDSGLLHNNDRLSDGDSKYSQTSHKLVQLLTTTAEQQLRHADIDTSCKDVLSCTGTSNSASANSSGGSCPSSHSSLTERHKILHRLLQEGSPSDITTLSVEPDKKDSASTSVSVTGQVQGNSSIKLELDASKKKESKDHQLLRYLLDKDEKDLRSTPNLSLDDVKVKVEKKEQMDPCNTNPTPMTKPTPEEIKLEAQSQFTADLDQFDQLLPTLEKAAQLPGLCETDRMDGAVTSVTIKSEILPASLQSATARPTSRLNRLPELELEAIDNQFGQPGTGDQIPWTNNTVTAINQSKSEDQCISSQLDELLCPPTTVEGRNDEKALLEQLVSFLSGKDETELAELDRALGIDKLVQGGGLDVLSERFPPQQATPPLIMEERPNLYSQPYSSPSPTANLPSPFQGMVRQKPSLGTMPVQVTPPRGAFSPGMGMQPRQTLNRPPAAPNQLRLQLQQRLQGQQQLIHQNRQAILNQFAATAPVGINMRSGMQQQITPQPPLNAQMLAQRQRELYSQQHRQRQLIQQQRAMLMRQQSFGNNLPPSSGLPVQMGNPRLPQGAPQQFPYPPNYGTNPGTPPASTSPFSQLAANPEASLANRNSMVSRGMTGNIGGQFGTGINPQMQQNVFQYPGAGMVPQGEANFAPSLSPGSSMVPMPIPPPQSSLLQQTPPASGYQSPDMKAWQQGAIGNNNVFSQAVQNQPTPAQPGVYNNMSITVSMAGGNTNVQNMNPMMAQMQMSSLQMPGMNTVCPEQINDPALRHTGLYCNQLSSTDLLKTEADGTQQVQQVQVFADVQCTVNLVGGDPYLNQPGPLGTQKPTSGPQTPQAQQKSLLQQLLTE

With `CCOc1ccccc1NC(=O)c1ccc2nccnc2c1` the EC50 [1] was 2.21 µM (active).

In the case of `COc1ccc(NC(=O)CSc2ccc3c4c(cccc24)C(=O)c2ccccc2-3)cc1`, the EC50 [2] is reported as > 79.4 µM (not active), the CC50 (Vero) is reported as 71.7 µM (active) and the EC50 [3] is reported as > 79.4 µM (not active). For the same molecule, the EC50 [4] was > 79.4 µM (not active).

With `O=C(Nc1nc(-c2ccc(F)cc2)cs1)c1cnccn1` the IC50 [5] was > 100 µM (active).

In the case of `C=CCn1c(N)c(C(=O)NCC2CCCO2)c2nc3ccccc3nc21` (stereo not given), the EC50 [6] is reported as > 20 µM (not active) and the EC50 [7] is reported as > 20 µM (not active).

For `CC(C)COc1ccc(C(=O)OC2CC(C)(C)OCC2CN(C)C)cc1` (stereo not given), the IC50 [8] was 5.55 µM (active) and the IC50 [9] was 8.01 µM (active).

For `Cc1n[nH]c2c1C(c1ccc(-c3ccccc3C#N)o1)C(C#N)=C(N)O2` (stereo not given), the EC50 [6] was 7.78 µM (active) and the EC50 [7] was 16.3 µM (active).

In the case of `CC(C)(C)NC(=O)C1N(c2cccnc2)C(=O)C2C(C(=O)Nc3ccccc3F)C3(C)C=CC21O3` (stereo not given), the EC50 [6] is reported as > 20 µM (not active) and the EC50 [7] is reported as > 20 µM (not active).

In the case of `[O-][n+]1onc2c1CCc1nnc(-c3ccccc3)cc1-2`, the EC50 [1] is reported as 2.83 µM (active).

For `Cc1cccc(C)c1NC(=S)Nc1c(C)n(C)n(-c2ccccc2)c1=O`, the EC50 [2] was > 79.4 µM (not active), the EC50 [3] was > 79.4 µM (not active) and the EC50 [4] was > 79.4 µM (not active).

For `COc1ccc(-n2nc(C(=O)Nc3ccc4c(c3)OCO4)c3ccccc3c2=O)cc1`, the IC50 [8] was 7.16 µM (active) and the IC50 [9] was 7.17 µM (active).
